The text below walks through data of ChEMBL document CHEMBL1147126, “Habbemines A and B, pyrrolidine alkaloids with human delta-opioid receptor binding affinity from the leaves of Elaeocarpus habbemensis” (J Nat Prod, 2007).

The assay concerns the target Delta-type opioid receptor (Homo sapiens, UniProt P41143). Nature of the assay: Displacement of [125I]deltorphin 2 from human recombinant delta opioid receptor expressed in HEK cell membrane. Format: cell membranes, HEK293.

Chain of Delta-type opioid receptor (P41143 whole entry): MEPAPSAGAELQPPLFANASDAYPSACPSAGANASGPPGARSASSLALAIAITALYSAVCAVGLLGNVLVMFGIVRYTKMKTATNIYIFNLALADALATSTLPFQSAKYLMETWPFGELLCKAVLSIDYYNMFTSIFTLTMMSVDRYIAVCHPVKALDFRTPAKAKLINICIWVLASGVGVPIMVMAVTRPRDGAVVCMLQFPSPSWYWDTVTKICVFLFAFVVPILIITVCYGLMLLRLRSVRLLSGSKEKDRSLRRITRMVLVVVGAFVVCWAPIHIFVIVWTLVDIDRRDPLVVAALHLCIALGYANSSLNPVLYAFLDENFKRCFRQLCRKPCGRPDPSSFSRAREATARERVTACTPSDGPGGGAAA

Consider `C[C@H]1CC=CC(=O)[C@@H]1C(=O)C[C@@H]1CCCN1CCCO` [HABBEMINES A], for which the concentration for half-maximal inhibition (IC50) stood at 32.1 µM.
With `C[C@H]1CC=CC(=O)[C@@H]1C(=O)C[C@H]1CCCN1CCCO` [HABBEMINES B] the figure was 32.1 µM.
